Measured values reported in ChEMBL document CHEMBL1201862, “PubChem BioAssay data set” (2004).
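1) Cells in 96-well plates. 2) Compound, 48 h, 5 concentrations. 3) Linear interpolation between surrounding doses. 4) Unreached endpoint = highest concentration. The concentration for 50% growth inhibition is given as GI50.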 Calls of active or inactive are those of the source. No stated cut-off is given here; in the data, active = GI50 up to about 1.1 µM and inactive = higher.

How the values were obtained:
Test in all cases: growth of human tumour cells (NCI), 48 h
[1] = tested on: NCI-H226
[2] = tested on: RXF 393
[3] = tested on: U-251
[4] = tested on: OVCAR-8
[5] = tested on: HT-29
[6] = tested on: SK-MEL-5
[7] = tested on: IGROV-1
[8] = tested on: SK-MEL-28
[9] = tested on: Malme-3M
[10] = tested on: 786-0
[11] = tested on: NCI-H460
[12] = tested on: HCT-116
[13] = tested on: OVCAR-5
[14] = tested on: HOP-92
[15] = tested on: SNB-75
[16] = tested on: HOP-62
[17] = tested on: NCI-H522
[18] = tested on: M14
[19] = tested on: CCRF-CEM

Measured: GI50

CCOC(=O)c1c(-c2[nH]c(C(=O)OCc3ccccc3)c(C)c2C(=O)OCC)[nH]c(C(=O)OCc2ccccc2)c1C
inactive: [1] > 100 µM | [2] 19.9 µM | [3] 36 µM | [4] > 100 µM | [5] > 100 µM | [6] > 100 µM | [7] > 100 µM | [8] > 100 µM | [9] > 100 µM | [10] 92 µM | [11] > 100 µM | [12] > 100 µM | [13] > 100 µM | [14] 55.2 µM | [15] 29 µM | [16] > 100 µM | [17] > 100 µM | [18] > 100 µM

CC1=C(C(=O)Nc2ccccc2)C(c2cccc3ccccc23)C(C(=O)Nc2ccccc2)=C(C)N1
inactive: [1] 1.74 µM | [19] 26.7 µM | [2] 14.4 µM | [3] 16.5 µM | [4] 16.7 µM | [5] 18.8 µM | [6] 19.3 µM | [7] 25.6 µM | [8] 18 µM | [9] 18.8 µM | [10] 22.4 µM | [12] 15.4 µM | [13] 23 µM | [14] 24 µM | [15] 15.6 µM | [16] 18.7 µM | [17] 16 µM | [18] 17.7 µM

COc1ccc(-c2cc(=O)c3cc(O)ccc3o2)c(OC)c1OC
inactive: [1] 41.6 µM | [19] 4.73 µM | [2] 28.2 µM | [5] 44.2 µM | [7] 42.8 µM | [8] 53.7 µM | [9] 66.5 µM | [10] 29 µM | [12] 26.5 µM | [13] 20.2 µM | [14] 32.4 µM | [15] 23.1 µM | [16] 42.7 µM | [17] 18.2 µM | [18] 37.9 µM

N=C(N)NS(=O)(=O)c1ccc(Nc2c3ccccc3nc3c(C(=O)Nc4ccc(S(N)(=O)=O)cc4)ccc(Cl)c23)cc1
inactive: [1] > 100 µM | [2] > 100 µM | [3] > 100 µM | [4] 58.2 µM | [5] > 100 µM | [6] > 100 µM | [7] > 100 µM | [8] > 100 µM | [9] > 100 µM | [10] > 100 µM | [11] > 100 µM | [12] > 100 µM | [13] > 100 µM | [14] > 100 µM | [15] > 100 µM | [16] > 100 µM | [17] > 100 µM | [18] > 100 µM

CC1=NC2(C(=O)O)C3(C(=O)O)N=C(C)OC3(C(F)(F)F)C2(C(F)(F)F)O1 (stereo not given)
inactive: [1] > 100 µM | [19] > 100 µM | [2] > 100 µM | [3] > 100 µM | [4] > 100 µM | [5] > 100 µM | [7] > 100 µM | [8] > 100 µM | [9] > 100 µM | [10] > 100 µM | [11] > 100 µM | [12] > 100 µM | [13] > 100 µM | [14] > 100 µM | [15] > 100 µM | [16] > 100 µM | [17] > 100 µM | [18] > 100 µM

CC1C2C=C(O)C(=O)C(C2=O)C1c1ccccc1 (stereo not given)
inactive: [1] 45.1 µM | [19] > 100 µM | [2] > 100 µM | [3] > 100 µM | [4] > 100 µM | [5] > 100 µM | [6] > 100 µM | [7] > 100 µM | [8] > 100 µM | [9] > 100 µM | [10] > 100 µM | [13] > 100 µM | [14] > 100 µM | [15] 82.6 µM | [16] > 100 µM | [17] > 100 µM | [18] > 100 µM

CC(=O)C1(O)CC2(c3ccccc3)C(=O)C1(c1ccccc1)C(c1ccccc1)=C2c1ccccc1 (stereo not given)
inactive: [1] > 100 µM | [19] > 100 µM | [2] > 100 µM | [3] 81.3 µM | [4] > 100 µM | [5] > 100 µM | [6] 44 µM | [7] > 100 µM | [9] > 100 µM | [10] > 100 µM | [11] > 100 µM | [12] 30.9 µM | [13] 49.1 µM | [14] 80.9 µM | [15] 38.7 µM | [16] > 100 µM | [17] 66.8 µM | [18] > 100 µM

C=C1C(=O)OC2C1CC[C@H](C)C13OC(=O)CC1[C@@]23C (stereo not given in full)
inactive: [1] > 100 µM | [19] > 100 µM | [2] > 100 µM | [3] > 100 µM | [4] > 100 µM | [5] > 100 µM | [6] > 100 µM | [7] > 100 µM | [8] > 100 µM | [9] > 100 µM | [10] > 100 µM | [11] > 100 µM | [12] > 100 µM | [13] > 100 µM | [14] > 100 µM | [15] > 100 µM | [17] 48.3 µM

O=S(=O)(CC1=NC2C=CC=CC2N=C1)NCc1ccccc1 (stereo not given)
inactive: [1] 78.7 µM | [19] > 100 µM | [2] 12.9 µM | [3] > 100 µM | [4] > 100 µM | [5] > 100 µM | [6] 40 µM | [7] > 100 µM | [8] > 100 µM | [9] > 100 µM | [10] > 100 µM | [11] > 100 µM | [12] > 100 µM | [13] > 100 µM | [14] 75.3 µM | [15] > 100 µM | [16] > 100 µM | [17] 76.2 µM | [18] > 100 µM

CC(C)c1cc(C(C)C)c(S(=O)(=O)N=[N+]=[N-])c(C(C)C)c1
inactive: [1] > 100 µM | [19] 34.9 µM | [2] 68.4 µM | [3] 44 µM | [4] > 100 µM | [5] 46.6 µM | [6] > 100 µM | [7] > 100 µM | [8] > 100 µM | [9] > 100 µM | [10] > 100 µM | [11] > 100 µM | [12] > 100 µM | [13] > 100 µM | [14] > 100 µM | [15] 23 µM | [16] > 100 µM | [17] > 100 µM | [18] > 100 µM

CC1=CC(=O)N2C(OC[C@@H]2c2ccccc2)O1 (stereo not given in full)
inactive: [1] > 100 µM | [19] > 100 µM | [2] > 100 µM | [3] > 100 µM | [4] > 100 µM | [5] > 100 µM | [6] > 100 µM | [7] > 100 µM | [8] > 100 µM | [9] > 100 µM | [10] > 100 µM | [11] > 100 µM | [12] > 100 µM | [14] > 100 µM | [15] > 100 µM | [16] > 100 µM | [17] > 100 µM | [18] > 100 µM
